Residues, ends and D or L forms follow the SMILES beside them.
Q: Which melting point does the source give for `COc1ccc(-n2ncc3c2-c2ccccc2C3)cc1` here?
A: 102 to 103 °C

Q: With `CCCCCCCc1ccc2cc(-c3ncc(CC)cn3)ccc2c1` as the molecule, how does the melting point read?
A: 62.3 to 63.1 °C

Q: Which melting point does the source give for `Cc1ccc([C@@H]2c3c(C)c(N4C(=O)CC(c5ccccc5)CC4=O)c(C)c(C)c3OC2(C)C)cc1` here?
A: 118 to 122 °C

Q: With `CN(CC(=O)O)C(=O)C(C)(C)Oc1ccc(C(=O)c2ccc(Cl)cc2)cc1` as the molecule, how does the melting point read?
A: 186 to 187 °C

Q: With `CCc1ccc(C(=O)NCc2ccc3c(c2)C(=O)N([C@@]2(C)CCC(=O)NC2=O)C3=O)cc1` as the molecule, how does the melting point read?
A: 160 to 162 °C

Q: Which melting point does the source give for `O=Cc1csc(N2CCCCC2)n1` here?
A: 68 to 69 °C

Q: With `COCOc1cc(Cl)ccc1-c1cc(-c2cccc(C(=O)NCCCn3ccnc3)c2)c(C#N)c(NC(=O)c2ccco2)n1` as the molecule, how does the melting point read?
A: 121 to 122 °C

Q: For `Cn1c(=O)c(-c2ccc(Cl)cc2Cl)cc2c3cc(-c4c[nH]nc4N)ccc3n(C)c21`, which melting point is on record?
A: 240 to 245 °C

Q: With `CCC(C)(C#N)NC(=O)Cc1c(C)cc(C)cc1C` (stereo unspecified) as the molecule, how does the melting point read?
A: 155 to 157 °C

Q: Which melting point does the source give for `COc1cccc(-n2c(-c3cc(-c4ccccc4)c(N4CCOCC4)s3)nc3ccccc3c2=O)c1` here?
A: 269 to 272 °C

Q: Which melting point does the source give for `COC(=O)Nc1ccc(Br)c(C)c1` here?
A: 71 to 72 °C

Q: Which melting point does the source give for `Cc1nc2c(OCc3c(Cl)ccc(S(=O)(=O)N4CCC[C@H]4C(=O)NCCCN)c3Cl)cccn2c1Br` here?
A: 75 °C

Q: For `COC(=O)c1cc(C(=O)NC(C)(C)CO)c2cc(Cc3ccc(F)cc3)cnc2c1O`, which melting point is on record?
A: 204 to 205 °C

Q: For `COc1cc2cc(F)cnc2cc1F`, which melting point is on record?
A: 98 °C

Q: For `CC(C)(C)OC(=O)Nc1cc(N2CCC(OC3CCCCO3)CC2)c(-c2ccc(F)cc2)cc1NC(=O)CC(=O)c1cccc(-n2ccnc2)c1` (racemic), which melting point is on record?
A: 129 to 132 °C

Q: Which melting point does the source give for `COc1ccc2c(ccc3nc(C(=O)O)cn32)c1` here?
A: 265 to 266 °C

Q: With `CCCCCCCCCCCCC(C(=O)O)C(O)(CC(=O)O)C(=O)O` (stereo unspecified) as the molecule, how does the melting point read?
A: 75.4 to 76.1 °C

Q: Which melting point does the source give for `CC(C(O)c1ccc(OC(=O)c2ccc(CNC(C)(C)C)cc2)cc1)N1CCC(O)(c2ccccc2)CC1` (stereo unspecified) here?
A: 195 to 197 °C

Q: With `C=CCOc1ccc(CCC(=O)O)cc1` as the molecule, how does the melting point read?
A: 88 to 89 °C

Q: With `Clc1cccc(Oc2ccc(OCn3cnc(Cl)c3Cl)cc2)n1` as the molecule, how does the melting point read?
A: 94 to 98 °C

Q: For `CC(C)Cn1cnc2c(N)nc3ccc(CCCCc4ccccc4)cc3c21`, which melting point is on record?
A: 176 to 177 °C

Q: For `O=C(COc1ccc(-c2c(Cl)c(CN3C(=O)CCC3=O)nc3sc4c(c23)CCS(=O)C4)cc1)NCc1ccccc1` (stereo unspecified), which melting point is on record?
A: 220 to 221 °C

Q: With `O=C(O)CCCc1ccc(-c2ccccc2Br)cc1` as the molecule, how does the melting point read?
A: 148 to 149 °C

Q: With `OCc1cn(-c2cccc(Cl)c2)cn1` as the molecule, how does the melting point read?
A: 78 to 79 °C

Q: For `N#Cc1c(N)nn(-c2c(Cl)cc(C(F)(F)F)cc2Cl)c1N`, which melting point is on record?
A: 208 to 210 °C

Q: For `O=C(N[C@H]1CCc2c(F)cc(F)cc2C1)C(F)(F)F`, which melting point is on record?
A: 160 to 161 °C

Q: With `COC(=O)CCC(C)C1CCC2C3=CC=C4C(C)(C)C(O)CCC4(C)C3CCC21C` (stereo unspecified) as the molecule, how does the melting point read?
A: 124 to 128 °C

Q: For `Cn1c(Cl)cnc1C#N`, which melting point is on record?
A: 87 to 89 °C

Q: Which melting point does the source give for `O=c1[nH]nc(-c2ccc(NN=C(c3ccccc3)c3ccc(O)cc3O)cc2)c2ccccc12` here?
A: 160 to 170 °C

Q: Which melting point does the source give for `CC(=O)C=Cc1ccc(O)cc1` here?
A: 104 to 105 °C

Q: With `Cc1cc(-c2cscn2)ccc1-c1cc(C(F)(F)F)nn1-c1ccc(S(C)(=O)=O)c(F)c1` as the molecule, how does the melting point read?
A: 132 °C

Q: Which melting point does the source give for `CC(C)CC(NC(=O)C(Cc1ccccc1)NC(=O)CNC(=O)C(C)NC(=O)C(N)Cc1ccc(O)cc1)C(=O)NC(CCCNC(=N)N)C(=O)O` (stereo unspecified) (H-YAGFLR-OH; configuration not given here) here?
A: 173 to 176 °C

Q: Which melting point does the source give for `COc1ccc(S(=O)(=O)N2CCn3c(c(C(N)=O)c(Cl)c3-c3ccccc3)C2)cc1` here?
A: 194 to 195 °C

Q: With `CCOC(=O)C(C(=O)OCC)c1cccc2ccccc12` as the molecule, how does the melting point read?
A: 57 to 59 °C

Q: Which melting point does the source give for `CON(C)C(=O)Nc1c(C(=O)C2CCCCC2)[nH]c2cc(Cl)ccc12` here?
A: 208 to 210 °C

Q: Which melting point does the source give for `O=C(O)c1cccc(-n2cc(-c3ccccc3F)cn2)c1` here?
A: 225 to 226 °C

Q: For `Cc1nc2c(O)nc3ccccc3c2n1C`, which melting point is on record?
A: > 300 °C

Q: For `CC(C)C(F)(C(=O)O)c1ccc(Cl)cc1` (stereo unspecified), which melting point is on record?
A: 120 °C

Q: With `COC(=O)c1cc(-c2ccc(SC)cc2)nn(CC2CC2)c1=O` as the molecule, how does the melting point read?
A: 100 to 102 °C

Q: With `COc1ccc(C(=NOC(C)=O)c2ccccc2F)c(O)c1C` as the molecule, how does the melting point read?
A: 83 to 86 °C

Q: With `Cn1nc(-c2cccnc2)c2c(C(F)(F)F)cc(-c3cccc(CN4CCOCC4)c3)nc21` as the molecule, how does the melting point read?
A: 155 °C

Q: For `CC(c1ccccc1N1CCCCC1)C(C(N)=O)c1ccc(C(=O)N2CCOCC2)cc1` (stereo unspecified), which melting point is on record?
A: 148 to 150 °C

Q: With `CC(=O)OCC1CCC2C3CCC4=CC(=O)CCC4(C)C3CCC12C` (stereo unspecified) as the molecule, how does the melting point read?
A: 141 to 142 °C

Q: Which melting point does the source give for `O=C(CCC(=O)N(CCCOc1ccc(C(=O)O)cc1)c1ccc(Cl)cc1)Nc1ccc(Cl)cc1` here?
A: 197 to 201 °C

Q: Which melting point does the source give for `O=C1CCC(=O)N1CCSc1ccc(O)cc1` here?
A: 114 to 122 °C

Q: With `CC1CC(=O)c2cc([N+](=O)[O-])ccc2O1` (stereo unspecified) as the molecule, how does the melting point read?
A: 144 to 145 °C

Q: With `CCC1(C)CCC(N)=CC1=O` (stereo unspecified) as the molecule, how does the melting point read?
A: 99 to 100 °C

Q: For `COc1ccc(CCCNc2c(C)c(C)c3c(c2C)C(c2ccc(C(C)C)cc2)C(C)(C)O3)cc1` (stereo unspecified), which melting point is on record?
A: 62 to 65 °C

Q: With `CC(C)NC(=O)[C@@H]1CCCN1C(=O)[C@H](C)NC(=O)OCc1ccccc1` as the molecule, how does the melting point read?
A: 124 to 126 °C

Q: With `CC(C)(C)NC(=O)[C@@H]1C[C@H](O)CN1C(=O)OCc1ccccc1` as the molecule, how does the melting point read?
A: 129 to 130 °C

Q: With `N#Cc1nc(C#Cc2ccccc2)c(C#Cc2ccccc2)nc1C#N` as the molecule, how does the melting point read?
A: 226 to 227 °C

Q: Which melting point does the source give for `CCOC(=O)c1ccc(-c2ccc(-c3ccc(C(F)(F)F)cc3)s2)cc1` here?
A: 203 to 204 °C

Q: For `O=C1c2ccccc2C(=O)N1COc1ccncc1`, which melting point is on record?
A: 129 to 131 °C

Q: With `CC(C)NC(=O)c1c(NC(=O)c2cc(C(F)(F)F)nn2-c2ncccc2Cl)c(C#N)cc2cn[nH]c12` as the molecule, how does the melting point read?
A: 226 to 229 °C

Q: With `O=[N+]([O-])c1cnc2cccnc2c1NCCOc1ccccc1` as the molecule, how does the melting point read?
A: 107 to 108 °C

Q: Which melting point does the source give for `N#Cc1nn(-c2c(Cl)cc(C(F)(F)F)cc2Cl)c(N)c1C(F)(F)F` here?
A: 191 to 193 °C

Q: For `C=C(CN(C)C)C(O)c1ncc2c(c1O)COC2c1ccc(Cl)cc1` (stereo unspecified), which melting point is on record?
A: 195 to 200 °C

Q: For `C(=C\c1nc2ccccc2n1-c1ccccn1)/c1cccs1`, which melting point is on record?
A: 130 to 131 °C

Q: With `CCC(O)(c1ccc(OCCN(C)C)cc1)c1cccc(C(F)(F)F)c1` (stereo unspecified) as the molecule, how does the melting point read?
A: 69 to 70 °C

Q: Which melting point does the source give for `CC(=O)c1c(C)nc(C)nc1NCc1ccc(Br)cc1` here?
A: 78 to 80 °C

Q: With `COc1cc(OCCOCc2ccccc2)cc2nc(-c3cc(C)nc(C)c3)[nH]c(=O)c12` as the molecule, how does the melting point read?
A: 178 to 180 °C

Q: With `Cc1noc(C)c1COc1cc(-n2c(=O)cc(C(F)(F)F)n(C)c2=O)c(F)cc1Cl` as the molecule, how does the melting point read?
A: 120 to 123 °C

Q: For `O=S(CCCCl)Cc1ccccc1` (stereo unspecified), which melting point is on record?
A: 70 to 71 °C

Q: Which melting point does the source give for `COCCCCCNC(=O)C(c1ccccc1)c1ccccc1` here?
A: 74.2 to 75 °C

Q: For `O=C(Nc1ccc(F)cc1)OCC1CSC2=C(O1)c1ccccc1C(=O)C2=O` (stereo unspecified), which melting point is on record?
A: 235 to 237 °C

Q: With `CC(C)(C)C(O)C1C(C(=O)O)C1(C)C` (stereo unspecified) as the molecule, how does the melting point read?
A: 129 °C

Q: With `CC(C#Cc1ccc(Cl)cc1)N(O)C(N)=O` (stereo unspecified) as the molecule, how does the melting point read?
A: 159 to 161 °C

Q: With `Nc1cc(-c2ccncc2)n[nH]c1=O` as the molecule, how does the melting point read?
A: > 300 °C

Q: For `Cc1nnc2cc(-c3ccncc3)ccn12`, which melting point is on record?
A: 223 to 226 °C

Q: With `O=C(Nc1ccc(C(F)(F)F)cc1Cl)[C@H]1[C@H](c2ccccc2)C12CCCC2` (relative stereo) as the molecule, how does the melting point read?
A: 131 to 133 °C

Q: For `COc1cc(O)c2c(c1C)C(=O)SCC(=O)N[C@@H](c1nc(C)no1)COC2`, which melting point is on record?
A: 194 to 196 °C
